Results reported in patent publication US10280156B2, “Heteroaromatic chalcone derivatives and their medical use” (Medizinische Universität Wien, priority 2014, dated 2019).

What was measured:
MEC1 = test: Viability test (CellTiter-Blue/EZ4U) on MEC1 cells, 48 h; assay type: cell-based, human; conditions: Homo sapiens, MEC1, 48 h, 48 h incubation; nd = no significant cytotoxic activity up to 100 μM
Protocol: (§1) JURKAT and CCRF-CEM (T-cell acute lymphoblastic leukemia), HL60 and K562 representing acute and chronic myeloid leukemia, respectively, the chronic lymphocytic leukemia cell line MEC-1, and the diffuse large B-cell lymphoma cell line U-2940 were cultured in Gibco RPMI 1640+GlutaMAX (Life Technologies, Carlsbad, Calif., USA) supplemented with 10% fetal bovine serum gold (FBS gold; PAA Laboratories, Pasching, Austria) and 1% PenStrep (100 U/ml penicillin and 100 μg/ml streptomycin; PAA Laboratories), and maintained at 37° C. in humidified atmosphere with 5% CO2. The diffuse large B-cell lymphoma cell line OCI-LY7 was cultured in Gibco IMDM+GlutaMAX and 25 mM HEPES (Life Technologies) containing 20% FBS gold and 1% PenStrep.
(§2) All experiments with hematological cell lines were done using phenol red-free RPMI 1640+L-glutamine (PAA Laboratories) supplemented with 1% PenStrep and 10% FBS gold, except experiments with OCI-Ly7 which were carried out in Gibco IMEM+GlutaMAX and 25 mM HEPES containing 20% FBS gold and 1% PenStrep. Cells were incubated in triplicates with increasing concentrations of the compounds for 48 h, changes in viability were determined using the cell proliferation and cytotoxicity assays EZ4U (Biomedica Group, Austria) and CellTiter-Blue Cell Viability Assay (Promega, Madison, Wis., USA) following instructions of the manufacturers. IC50 values were calculated from two independent experiments using GraphPad Prism 5 software.
(§3) Initially, compounds were biologically tested in six concentration steps (0.1 μM; 1 μM; 5 μM; 10 μM; 50 μM; and 100 μM) using the CellTiter-Blue Cell Viability Assay (Promega, Madison, Wis., USA) and an incubation time of 48 hours. […] IC50 values were calculated from at least two independent experiments with 3 replicates each. In order to evaluate the biologic activity of the new compounds, cytotoxicity was compared to that of fludarabine, an already approved drug for the treatment of various B-cell malignancies. […] Differences in IC50 values for the different cell types can be explained by the biological and genetic particularities of each subtype of B-cell Non-Hodgkin lymphoma (Stacchini A et al. Leukemia Res 1999, 23, 127-136; Sambade C et al. Int J Cancer 2006, 118, 555-563; Chang H et al. Leukemia lymphoma 1995, 19, 165-171; Tweeddale M E et al. Blood 1987, 69, 1307-1314; Tweeddale M et al. Blood 1989, 74, 572-578).

U-2940 = test: Viability test on U-2940 cells, 48 h; assay type: cell-based, human; conditions: Homo sapiens, U-2940, 48 h, 48 h incubation; nd = no significant cytotoxic activity up to 100 μM
Protocol: as §1, §2, §3

OCI-Ly7 = test: Viability test on OCI-Ly7 cells, 48 h; assay type: cell-based, human; conditions: Homo sapiens, OCI-Ly7, 48 h, 48 h incubation; nd = no significant cytotoxic activity up to 100 μM
Protocol: as §1, §2, §3

M2-10B4 = test: Viability test on mouse fibroblast cell line M2-10B4, 48 h; assay type: cell-based; conditions: for IC50: Mus musculus, M210B4, 48 h, 48 h incubation, mouse fibroblast cell line
Protocol: as §2
Structurally seen, the small molecule compound 1 represents a typical chalcone scaffold. It is characterized by an ortho-ethoxy-substituted phenyl part as ring A and a 2-naphthyl moiety symbolizing ring B. The focus of the present study was to guide the systematic identification of a growth inhibitor with specificity to neoplastic cells, as cytotoxicity towards healthy cells is mostly associated with adverse effects, which can be related to morbidity and mortality of the patient (Milligan D W et al. Brit J Haematol 2006, 135, 450-474). To discriminate in vitro between structural elements necessary for potent cytotoxicity towards tumor cells which, at the same time, clearly show less activity on normal cells, the compounds were additionally tested on the murine bone marrow fibroblast cell line M2-10B4. This cell line is regularly used as feeder layer when cultured with patient cells providing additional support and survival signals in particular in drug screens (Kurtova A V et al. Blood 2009, 114, 4441-4450).
as §3

SMILES | melting point | IC50 (MEC1) | IC50 (U-2940) | IC50 (OCI-Ly7) | IC50 (M2-10B4) | cytotoxic potential on M2-10B4 (in words) (M2-10B4; mouse fibroblasts)
CCOc1ccccc1C(=O)/C=C/c1ccc(-c2cccs2)s1 [Compound 30, (E)-3-(2,2′-bithiophen-5-yl)-1-(2-ethoxyphenyl)-2-propen-1-one] |  | 0.02 µM | 3.13 µM | 0.02 µM |  | 
CCOc1ccccc1C(=O)/C=C/c1cc2ccccc2s1 [Compound 27, (E)-3-(1-Benzothiophen-2-yl)-1-(2-ethoxyphenyl)-2-propen-1-one] | 95 to 98 °C | 0.06 µM | 2.31 µM | 0.07 µM |  | 
CCOc1ccccc1C(=O)/C=C/c1ccc2cc(OC)ccc2c1 [Compound 7, 1-(2-Ethoxyphenyl)-3-(6-methoxy-2-naphthyl)-2-propen-1-one] |  | 7.16 µM | 24.7 µM | 1.01 µM | > 100 µM | no cytotoxic potential
COc1ccccc1C(=O)/C=C/c1ccc2ccccc2c1 [Compound 2, 1-(2-Methoxyphenyl)-3-(2-naphthyl)-2-propen-1-one] |  | 0.43 µM | 4.09 µM | 0.46 µM | 41.8 µM | 
CCCCOc1ccccc1C(=O)/C=C/c1ccc2ccccc2c1 [Compound 4, 1-(2-Butoxyphenyl)-3-(2-naphthyl)-2-propen-1-one] |  | 0.7 µM | 5.31 µM | 0.12 µM | > 100 µM | 
CCCOc1ccccc1C(=O)/C=C/c1cc2ccccc2[nH]1 [Compound 26, (E)-3-(1H-indol-2-yl)-1-(2-propoxyphenyl)-2-propen-1-one] | 112 to 114 °C | 0.04 µM | 10.1 µM | 0.08 µM |  | 

Further lines, with some results ahead:

melting point | SMILES | IC50 (MEC1) | IC50 (U-2940) | IC50 (OCI-Ly7) | IC50 (M2-10B4) | cytotoxic potential on M2-10B4 (in words) (M2-10B4; mouse fibroblasts)
121 to 123 °C | CCOc1cccc(C(=O)/C=C/c2ccc3[nH]ccc3c2)c1 [Compound 23, (E)-1-(3-Ethoxyphenyl)-3-(1H-indol-5-yl)-2-propen-1-one] | 2.6 µM | 10 µM | 1.47 µM |  | 
151 to 153 °C | CCOc1ccccc1C(=O)/C=C/c1ccc2[nH]ccc2c1 [Compound 22, (E)-1-(2-Ethoxyphenyl)-3-(1H-indol-5-yl)-2-propen-1-one] | 0.05 µM | 1.71 µM | 0.03 µM |  | 
178 to 181 °C | CCOc1ccc(C(=O)/C=C/c2cc3ccccc3[nH]2)cc1 [Compound 21, 1-(4-Ethoxyphenyl)-3-(1H-indole-2-yl)-2-propen-1-one] |  |  | 25.3 µM |  | 
156 to 158 °C | CCOc1cccc(C(=O)/C=C/c2cc3ccccc3[nH]2)c1 [Compound 20, 1-(3-Ethoxyphenyl)-3-(1H-indole-2-yl)-2-propen-1-one] | 3.33 µM |  | 4.83 µM |  | 
127 to 129 °C | CCOc1cccc(C(=O)/C=C/c2cc3ccccc3o2)c1 [Compound 32, (E)-3-(1-Benzofuran-2-yl)-1-(3-ethoxyphenyl)-2-propen-1-one] | 6.91 µM | 44.3 µM | 16.7 µM |  | 
98 to 99 °C | CCOc1cccc(C(=O)/C=C/c2ccc3sccc3c2)c1 [Compound 28] | 5.48 µM | 12.9 µM | 4.78 µM |  | 
159 to 161 °C | CCOc1ccc(C(=O)/C=C/c2ccc3ccccc3c2)cc1 [Compound 17, 3-(2-Napthyl)-1-(4-ethoxyphenyl)-2-propen-1-one] |  |  |  |  | 
171 to 173 °C | CCOc1ccc(C(=O)/C=C/c2ccc3[nH]ccc3c2)cc1 [Compound 24, (E)-1-(4-Ethoxyphenyl)-3-(1H-indol-5-yl)-2-propen-1-one] | 26.6 µM | 50 µM | 15.9 µM |  | 
